From the CheMixHub viscosity set

Test: xn = mol fraction of the nth substance listed

CCCCCCCCN(CCCCCCCC)CCCCCCCC + Cc1ccccc1
298.15 K, 101.33 kPa
Conditions | viscosity [mPa·s]
x1 = 0.015 | 0.595
x1 = 0.033 | 0.646
x1 = 0.075 | 0.775
x1 = 0.231 | 1.405

CCOC(=O)CCl + N#CCc1ccccc1
Conditions | viscosity [mPa·s]
308.15 K, 101 kPa, x2 = 0.3793 | 1.155

CC(C)CC(C)C + CCCCCCCCCCCCCCCC
101 kPa, x1 = 0.5
Conditions | viscosity [mPa·s]
298 K | 1.314
318 K | 0.9631

CCOCCOCCOCC + CC1COC(=O)O1
viscosity [mPa·s], 101.33 kPa
Conditions | 298.15 K | 308.15 K | 318.15 K
x1 = 0.013 | 2.474 | 2.024 | 1.703
x1 = 0.0542 | 2.418 | 1.982 | 1.658
x1 = 0.1089 | 2.353 | 1.923 | 1.605
x1 = 0.1594 | 2.288 | 1.875 | 1.555
x1 = 0.2136 | 2.225 | 1.827 | 1.506
x1 = 0.257 | 2.179 | 1.782 | 1.466
x1 = 0.3304 | 2.08 | 1.702 | 1.39
x1 = 0.4267 | 1.94 | 1.589 | 1.297
x1 = 0.497 | 1.833 | 1.504 | 1.227
x1 = 0.5874 | 1.717 | 1.404 | 1.152
x1 = 0.6907 | 1.589 | 1.306 | 1.076
x1 = 0.7876 | 1.474 | 1.219 | 1.01
x1 = 0.8704 | 1.377 | 1.148 | 0.957
x1 = 0.9264 | 1.316 | 1.101 | 0.922
x1 = 0.9628 | 1.289 | 1.071 | 0.901

CC(C)OCCO + CCCO
298.15 K, 101.33 kPa
Conditions | viscosity [mPa·s]
x1 = 0.0192 | 1.947
x1 = 0.0257 | 1.944
x1 = 0.045 | 1.941
x1 = 0.0645 | 1.938
x1 = 0.081 | 1.933
x1 = 0.1072 | 1.93
x1 = 0.1486 | 1.927
x1 = 0.1863 | 1.923
x1 = 0.2438 | 1.919
x1 = 0.2942 | 1.914
x1 = 0.3545 | 1.916
x1 = 0.3782 | 1.921
x1 = 0.4251 | 1.929
x1 = 0.4749 | 1.938
x1 = 0.5261 | 1.949
x1 = 0.5659 | 1.958
x1 = 0.6184 | 1.971
x1 = 0.6608 | 1.983
x1 = 0.7 | 1.996
x1 = 0.7606 | 2.015
x1 = 0.8023 | 2.025
x1 = 0.8623 | 2.042
x1 = 0.8845 | 2.052
x1 = 0.9485 | 2.064

O=C(OCc1ccccc1)c1ccccc1 + Cc1ccccc1
298.15 K, 101 kPa
Conditions | viscosity [mPa·s]
x1 = 0.2369 | 1.183
x1 = 0.4262 | 2.015
x1 = 0.6505 | 3.614
x1 = 0.789 | 5.08
x1 = 0.9002 | 6.66

CC(C)OCCO + CC(=O)N(C)C
298.15 K, 101 kPa
Conditions | viscosity [mPa·s]
x1 = 0.0063 | 0.956
x1 = 0.014 | 0.97
x1 = 0.0243 | 0.983
x1 = 0.0518 | 1.016
x1 = 0.0792 | 1.049
x1 = 0.1131 | 1.092
x1 = 0.1712 | 1.167
x1 = 0.2095 | 1.225
x1 = 0.2923 | 1.336
x1 = 0.3534 | 1.422
x1 = 0.3673 | 1.443
x1 = 0.3996 | 1.494
x1 = 0.4419 | 1.555
x1 = 0.4958 | 1.63
x1 = 0.5445 | 1.704
x1 = 0.6028 | 1.782
x1 = 0.6671 | 1.871
x1 = 0.7594 | 1.973
x1 = 0.8097 | 2.044
x1 = 0.867 | 2.083
x1 = 0.9066 | 2.098
x1 = 0.9627 | 2.102
x2 = 0.006 | 2.106
x2 = 0.0146 | 2.105

C[C@H](N)C(=O)N[C@@H](C)C(=O)O + O
viscosity [mPa·s], 101 kPa
Conditions | x1 = 3.87e-05 | x1 = 7.58e-05 | x1 = 0.000107 | x1 = 0.00015 | x1 = 0.000172 | x1 = 0.0002106 | x1 = 0.0002561 | x1 = 0.0002871 | x1 = 0.0003202 | x1 = 0.0003571
305.15 K | 0.7669 | 0.7674 | 0.7681 | 0.7688 | 0.7719 | 0.7741 | 0.7782 | 0.7795 | 0.7798 | 0.7828
310.15 K | 0.7029 | 0.7032 | 0.7033 | 0.7061 | 0.7067 | 0.7084 | 0.7089 | 0.7115 | 0.7139 | 0.7167
315.15 K | 0.6416 | 0.6452 | 0.6473 | 0.6487 | 0.6499 | 0.6499 | 0.6519 | 0.6548 | 0.6573 | 0.6608

CC(C)OCCO + CCCCCCCCO
viscosity [mPa·s], 101 kPa
Conditions | 298.15 K | 303.15 K | 308.15 K
x1 = 0.0517 | 7.288 | 6.066 | 5.217
x1 = 0.1016 | 6.902 | 5.729 | 4.938
x1 = 0.1531 | 6.517 | 5.401 | 4.671
x1 = 0.2013 | 6.178 | 5.106 | 4.415
x1 = 0.2524 | 5.832 | 4.817 | 4.162
x1 = 0.3033 | 5.49 | 4.523 | 3.906
x1 = 0.4 | 4.893 | 4.027 | 3.482
x1 = 0.5012 | 4.314 | 3.556 | 3.086
x1 = 0.618 | 3.706 | 3.07 | 2.691
x1 = 0.7017 | 3.325 | 2.776 | 2.459
x1 = 0.8102 | 2.849 | 2.418 | 2.155
x1 = 0.8492 | 2.721 | 2.322 | 2.091
x1 = 0.9046 | 2.477 | 2.157 | 1.986
x1 = 0.9472 | 2.36 | 2.064 | 1.911

CCCCOCCO + CCCCO
101 kPa
Conditions | viscosity [mPa·s]
298.15 K, x1 = 0.7025 | 2.645
303.15 K, x1 = 0.4 | 2.255
303.15 K, x1 = 0.6054 | 2.345
303.15 K, x1 = 0.8042 | 2.475
308.15 K, x1 = 0.7025 | 2.045

CCCCCCCCN(CCCCCCCC)CCCCCCCC + CC(CC(C)(C)C)CC(C)(C)C
298.15 K, 101.33 kPa
Conditions | viscosity [mPa·s]
x1 = 0.052 | 1.424
x1 = 0.11 | 1.675
x1 = 0.173 | 1.982
x1 = 0.527 | 4.26

CCOC(=O)CCl + Cc1ccc(C)cc1
viscosity [mPa·s], 101.3 kPa
Conditions | x1 = 0.0994 | x1 = 0.1995 | x1 = 0.3008 | x1 = 0.3992 | x1 = 0.5001 | x1 = 0.601 | x1 = 0.6994 | x1 = 0.7968 | x1 = 0.8943
298.15 K | 0.635 | 0.663 | 0.699 | 0.735 | 0.783 | 0.832 | 0.886 | 0.949 | 1.017
303.15 K | 0.599 | 0.624 | 0.656 | 0.691 | 0.734 | 0.778 | 0.827 | 0.882 | 0.945
308.15 K | 0.563 | 0.586 | 0.615 | 0.646 | 0.686 | 0.726 | 0.768 | 0.816 | 0.874
